Assay results as given in PubChem BioAssay (NCI).
“And” between values parts separate entries of the source, which are not always exact repeats. Identical values can stand only once.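 1) Cells in 96-well plates. 2) Compound, 48 h, 5 concentrations. 3) Linear interpolation between surrounding doses. 4) Unreached endpoint = highest concentration. Here, GI50 denotes the concentration required for 50% inhibition of growth. TGI: total growth inhibition.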

Experiments:
Assay in all cases: NCI-60 cell line screen, 48 h
[1] = tested on: NCI-H226 lung
[2] = tested on: SR leukemia
[3] = tested on: MDA-N
[4] = tested on: OVCAR-8 ovarian
[5] = tested on: HCT-116 colon
[6] = tested on: OVCAR-4 ovarian
[7] = tested on: DU-145 prostate
[8] = tested on: ACHN renal
[9] = tested on: MCF7 breast
[10] = tested on: KM20L2 colon

C=C1CN(C2=NCCO2)C1
TGI [1]: > 100 µM | TGI [2]: > 100 µM | TGI [3]: > 100 µM | TGI [4]: > 100 µM | TGI [5]: > 100 µM | TGI [6]: > 100 µM | TGI [7]: > 100 µM | TGI [8]: > 100 µM | TGI [9]: > 100 µM

CCOc1ccc2c(c1)c(=O)c1c(NCCN(CC)CC)ccc3nnn2c31
TGI [1]: > 100 µM | TGI [2]: 50.1 µM | TGI [3]: 35.7 µM | TGI [4]: 65.8 µM | TGI [5]: > 44.9 µM | TGI [6]: 26.3 µM | TGI [7]: 54.4 µM | TGI [8]: > 56.1 µM | TGI [9]: > 68.7 µM

CN(C)CCCNCc1cccc2ccccc12
TGI [1]: > 100 µM | TGI [2]: 68.5 µM | TGI [3]: > 100 µM | TGI [4]: > 100 µM | TGI [5]: > 100 µM | TGI [6]: > 100 µM | TGI [7]: > 100 µM | TGI [8]: > 100 µM | TGI [9]: > 100 µM

C=C1C(=O)OC2CC3(C)OC3CC/C(C)=C/C(OC(C)=O)C12 (centres undefined)
TGI [1]: 26.8 µM | TGI [3]: 18.7 µM | TGI [4]: 13.6 µM | TGI [5]: 14.6 µM | TGI [6]: 16.1 µM | TGI [7]: 28.4 µM | TGI [8]: 23.3 µM | TGI [10]: 20 µM | TGI [9]: 18 µM

Cc1ccc([N+](=O)[O-])c2c(NCC(O)CO)ccnc12 (centres undefined)
TGI [1]: > 100 µM | TGI [2]: > 100 µM | TGI [3]: > 100 µM | TGI [4]: > 100 µM | TGI [5]: > 100 µM | TGI [6]: > 100 µM | TGI [7]: > 100 µM | TGI [8]: > 100 µM | TGI [9]: > 100 µM

C/C=C(/C)C(=O)O[C@H]1[C@H](O)CC(c2ccc3c(c2O)C(O)=C2C(=O)C4(OC)C(O)=C(C(N)=O)C(=O)[C@H](CC(=O)c5ccccc5O)C4CC2[C@@]3(C)OC)O[C@@H]1C (some centres undefined)
TGI [1]: 2.33 µM | TGI [2]: 0.355 µM | TGI [3]: 2.09 µM | TGI [4]: 1.67 µM and 0.713 µM | TGI [5]: 0.0262 µM and 0.0189 µM | TGI [6]: 17 µM | TGI [8]: 3.96 µM | TGI [10]: 0.0623 µM | TGI [9]: 1.15 µM

CCCC(=O)[O-].N.N.N.N.N.[Co+3].[O-][Cl+3]([O-])([O-])[O-]
TGI [4]: > 100 µM | TGI [5]: > 100 µM | TGI [6]: > 100 µM | TGI [8]: > 100 µM | GI50 [10]: > 100 µM | TGI [10]: > 100 µM

CCOC(=O)c1c(-c2cccc3ccccc23)c(C#N)c(=S)n(C2OC(COC(C)=O)C(OC(C)=O)C(OC(C)=O)C2OC(C)=O)c1C (centres undefined)
TGI [1]: > 100 µM | TGI [2]: > 100 µM | TGI [3]: > 100 µM | TGI [4]: > 100 µM | TGI [5]: > 100 µM | TGI [6]: > 100 µM | TGI [7]: > 100 µM | TGI [8]: > 100 µM | TGI [9]: > 100 µM

Oc1cc(Br)cc2cc(Cl)cnc12
TGI [1]: 64.4 µM | TGI [2]: > 30.2 µM | TGI [3]: > 100 µM | TGI [4]: > 40.6 µM | TGI [5]: > 42 µM | TGI [6]: 12.8 µM | TGI [7]: > 55.5 µM | TGI [8]: > 68 µM | TGI [9]: 23.8 µM

CCN1CCC(O)(/C=C/c2ccc(C(C)C)cc2)C(C(=O)/C=C/c2ccc(C(C)C)cc2)C1 (centres undefined)
TGI [1]: 9.06 µM | TGI [2]: > 20.9 µM | TGI [3]: 5 µM | TGI [4]: 4.31 µM | TGI [5]: 3.53 µM | TGI [6]: 8.71 µM | TGI [7]: 9.76 µM | TGI [8]: 3.31 µM | TGI [9]: 14 µM

CC(C)(C)OC(=O)NCC(=O)N1CCN(C(=O)CNC(=O)OC(C)(C)C)CC1
TGI [1]: > 100 µM | TGI [2]: > 100 µM | TGI [3]: > 100 µM | TGI [4]: > 100 µM | TGI [5]: > 100 µM | TGI [6]: > 100 µM | TGI [7]: > 100 µM | TGI [8]: > 100 µM | TGI [9]: > 100 µM

COC(=O)C(NC(=O)c1ccccc1)C(c1ccc(Cl)cc1)P(=O)(OC)OC (centres undefined)
TGI [1]: > 100 µM | TGI [2]: > 100 µM | TGI [4]: > 100 µM | TGI [5]: > 100 µM | TGI [6]: > 100 µM | TGI [8]: > 100 µM | TGI [10]: > 100 µM

O=C1CSc2cc([N+](=O)[O-])ccc2N1
TGI [1]: > 100 µM | TGI [4]: > 100 µM | TGI [5]: > 100 µM | TGI [6]: > 100 µM | TGI [8]: > 100 µM | TGI [10]: > 100 µM

CCC(NC1=NCCO1)c1cccs1 (centres undefined)
TGI [1]: 37.1 µM | TGI [2]: > 100 µM | TGI [3]: 27.7 µM | TGI [4]: 30.3 µM | TGI [5]: 27.1 µM | TGI [6]: 44.5 µM | TGI [7]: 28.5 µM | TGI [8]: 29.4 µM | TGI [9]: 29 µM

COc1ccc(N2C(=O)C3c4[nH]c5ccccc5c4C4CCCCC4C3C2=O)cc1 (centres undefined)
TGI [1]: > 100 µM | TGI [2]: 25.2 µM | TGI [4]: 28.6 µM | TGI [5]: 22 µM | TGI [6]: 23.6 µM | TGI [8]: > 100 µM | TGI [10]: > 100 µM

c1ccc(CN2CCN3CCN(CC2)CCN(Cc2ccccc2)CC3)cc1
TGI [1]: 19.1 µM | TGI [2]: 16.5 µM | TGI [3]: 12.2 µM | TGI [4]: 23.3 µM | TGI [5]: 16.4 µM | TGI [6]: 20.3 µM | TGI [7]: 29.6 µM | TGI [8]: 65.6 µM | TGI [9]: 18.8 µM
